Where “and” joins values, the source holds several entries; their conditions need not be identical. Identical values can stand only once. Like-named read-outs stand apart in the source and are kept apart here. Peptide text beside a SMILES is read from it. * marks the point of attachment. Cbz = O=C(OCc1ccccc1)*; CH2F = FC*
Legend:
[1] = test system: PrP^Sc accumulation in ScN2a cells; conditions: cited from earlier work
[2] = test system: C2 production in SMB cells; experiment: cells; assay type: cell-based, mouse; conditions: for IC50: read-out: concentration producing 50% inhibition of C2 accumulation (IC50)
[3] = test system: calpain-mediated cleavage of PrP in SMB cells; assay type: cell-based, mouse
[4] = test system: C1 production in SMB cells; assay type: cell-based, mouse
[5] = test system: prion replication in SMB cells; conditions: mouse, in vivo

Compound: CC(=O)N[C@@H](CC(C)C)C(=O)N[C@@H](CC(C)C)C(=O)N[C@H](C=O)CCCNC(=N)N [leupeptin]
- PrP^Sc accumulation in ScN2a cells [1]: affected PrP^Sc accumulation

Compound: Z-FG-NHO-BzOME [cathepsin inhibitor III]
- effect on production of C2 [2]: unaffected

Compound: CNc1ccc2oc(C[C@H]3O[C@@]4(CC[C@H]3C)O[C@H]([C@H](C)C(=O)c3ccc[nH]3)[C@H](C)C[C@H]4C)nc2c1C(=O)O [A23187]
- increase of C2 [3]: 3.5 fold

Compound: Z-FY(t-Bu)-DMK [cathepsin L inhibitor III]
- effect on production of C2 [2]: unaffected

Compound: CC(C)[C@H](NC(=O)OCc1ccccc1)C(=O)N[C@H](C=O)Cc1ccccc1 [MDL28170, Carbobenzoxy-valinyl-phenylalaninal] (Cbz-Val-Phe-aldehyde)
- C2 by immunoblotting [2]: undetectable
- reduction in C2 [2]: 63±19.7% and 75±6.8%
- IC50 ([2]; Mus musculus, SMB): ~4000 nM
- C1 levels [4]: increased to levels similar to calpain inhibitor IV-treated SMB cells
- prion titers in treated SMB cells [5]: reduced prion titers
- cell toxicity / cell survival (SMB cells): cell toxicity is not triggered

Compound: calpastatin
- levels of C2 lower than control transfected cells [2]: 64±15%

Compound: C[C@H](CCC(=O)O)C[C@H](C)C[C@H](C)C(=O)/C=C(\O)[C@H](C)C[C@H](C)C/C=C/[C@@H](C)[C@@H](O)[C@@H](C)[C@@H](O)C[C@@H]1CC[C@@](C)([C@H]2CC[C@@](C)([C@@H](C)O)O2)O1 [ionomycin]
- increase in C2 levels compared to control [3]: ~7 fold

Compound: CCCC[C@@H](C=O)NC(=O)[C@H](CC(C)C)NC(=O)OCc1ccccc1 [calpeptin, Benzyloxycarbonylleucyl-norleucinal]
- reduction in C2 [2]: 71±7.1%
- cell toxicity / cell survival (SMB cells): cell toxicity is not triggered

Compound: Cbz-Leu-Leu-Tyr-CH2F [calpain inhibitor IV]
- effect on production of C2 [2]: apparently complete elimination of C2
- IC50 [2]: 450 nM
- C1 levels [4]: C1 levels declined
- C1 levels higher than control treated SMB cells [4]: ~2 fold
- cell toxicity / cell survival (SMB cells): cell toxicity is not triggered

Reference: patent US20060234971A1 (priority 2005, published 2006)
